Experimental data published in paper PMC12153776, “Synthesis and Preliminary Cytotoxicity Evaluation of 3-Lup-20(29)-Ene-3β,28-Diol Glycoconjugates Containing a Succinic Linker and a 1,2,3-Triazole Ring” (Cancers, 2025).

Legend:
MCF-7 cell line = system: MCF-7 cell line; parameters: method as in PMID 33353244; details: previous study; cited from earlier work
healthy cells = system: healthy cells; parameters: method as in PMID 33353244; details: previous study; cited from earlier work
[1] = system: MCF-7 (human breast adenocarcinoma cell line); assay: MTT cytotoxicity assay, MCF-7 cells; assay type: cell-based; details: for IC50: Homo sapiens, MCF7, 72 h, MTT, incubation 72 h
Procedure: (§1) For biological studies three different cell lines were used: the NHDF-Neo cell line (Lonza, Poland), the HCT-116 cell line (American Type Culture Collection, ATCC, Manassas, VA, USA), and the MCF-7 cell line (purchased by the Maria Sklodowska-Curie Memorial Cancer Center and Institute of Oncology, Gliwice, Poland and gifted for our research). Cells were cultured in 96-well plates (Sarstedt, Nümbrecht, Germany) using RPMI 1640 or DMEM/F12 media (100 µL per well) supplemented with fetal bovine serum (FBS, EURx, Gdańsk, Poland), and with Antibiotic–Antimycotic Solution (Avantor, Gliwice, Poland). Cells were seeded and incubated for 24 h prior to treatment: […] Stock solutions of the tested compounds were prepared in DMSO and stored under appropriate conditions. Immediately prior to the experiment, these solutions were diluted to the desired concentrations using a growth medium. In no dilution was the DMSO content higher than 1% v/v. The resulting solutions were then used to treat cells (100 µL per well). […] In parallel, the influence of copper ions on cellular proliferation was investigated. In this case, the procedure was analogous to the previously described one, with the difference that glycoconjugates were added in the culture medium with the addition of CuCl2. […] ACROS Organics) was applied following the manufacturer’s protocol. Absorbance of the formazan, formed during the test and dissolved in 100 µL of DMSO, was measured spectrophotometrically at 570 nm using a plate reader (Epoch, Bio-Tek, Winooski, VT, USA). The measured absorbance was analyzed to assess proliferation, where tested samples were compared with the untreated controls (100%). The results from MTT were presented as the mean of three experiments (biological replicates). For each experimental condition within a replicate, four technical repetitions were performed. Technical repetitions were averaged to obtain a single value per replicate. Statistical analyses were conducted using means of the biological replicates. The percentage of viable cells and the standard deviation (SD) were calculated in Excel (Microsoft Office 365, A3 for faculty), using the STDEV.S formula, which determines the standard deviation for a sample set. […] The results are expressed as the average value ± standard deviation (SD). To evaluate statistical significance, two-way analysis of variance (ANOVA) with replication was performed to assess the effects of compound type and concentration on cell proliferation. When significant main effects were observed (p < 0.05), pairwise comparisons between betulin (BN) and each analogue at corresponding concentrations were conducted using two-tailed unpaired t-tests. […] All statistical tests were performed in Excel. […] Two cancer cell lines were chosen for the study: HCT 116 (colorectal carcinoma cell line) and MCF-7 (human breast adenocarcinoma cell line). This selection was not random, as in both types of cancer cell lines overexpression of glucose and galactose transporters is observed. To determine if glycoconjugation enhanced the selectivity of the betulin derivatives, cytotoxicity tests on Normal Human Dermal Fibroblast-Neonatal cells (NHDF-Neo) were also conducted. The selection of this healthy cell line, so atypical in relation to the cancer cells tested, was based on the desire to compare the selectivity index determined for the currently obtained glycoconjugates with the results obtained for the betulin derivatives we described earlier and draw preliminary conclusions on structure-selectivity relationships. […] The incubation time for individual cell lines varied from 24 to 72 h, due to differences in the doubling time of these cell lines.

[2] = system: HCT 116 (colorectal carcinoma cell line); assay: cells; assay type: cell-based, human; details: for IC50: Homo sapiens, MTT
Procedure: as §1, with “Poland).” for “Poland). Cells were seeded and incubated for 24 h prior to treatment:”, “proliferation.” for “proliferation. When significant main effects were observed (p < 0.05), pairwise comparisons between betulin (BN) and each analogue at corresponding concentrations were conducted using two-tailed unpaired t-tests.”, “conducted.” for “conducted. The selection of this healthy cell line, so atypical in relation to the cancer cells tested, was based on the desire to compare the selectivity index determined for the currently obtained glycoconjugates with the results obtained for the betulin derivatives we described earlier and draw preliminary conclusions on structure-selectivity relationships.”

[3] = system: Normal Human Dermal Fibroblast-Neonatal cells (NHDF-Neo); assay: MTT cytotoxicity assay, healthy NHDF-Neo cells; assay type: cell-based; details: 24 h, incubation 24 h
Procedure: as §1, with “Poland).” for “Poland). Cells were seeded and incubated for 24 h prior to treatment:”, “proliferation.” for “proliferation. When significant main effects were observed (p < 0.05), pairwise comparisons between betulin (BN) and each analogue at corresponding concentrations were conducted using two-tailed unpaired t-tests.”, “conducted.” for “conducted. The selection of this healthy cell line, so atypical in relation to the cancer cells tested, was based on the desire to compare the selectivity index determined for the currently obtained glycoconjugates with the results obtained for the betulin derivatives we described earlier and draw preliminary conclusions on structure-selectivity relationships.”

[4] = HCT-116, 24 h, incubation 24 h, no copper added
[5] = HCT-116, 48 h, incubation 48 h, no copper added

SMILES | in vitro activity against the MCF-7 cell line (MCF-7 cell line) | toxicity against healthy cells (healthy cells) | IC50 ([1]; no copper added) [µM] | SI MCF-7 (ratio of IC50 of NHDF-Neo to IC50 of cancer cells) ([1]; no copper added) | IC50 [2, 4] [µM] | IC50 [2, 5] [µM] | IC50 ([3]; no copper added) [µM] | IC50 ([1]; addition of CuCl2 at 20 µM) [µM] | SI MCF-7 (ratio of IC50 of NHDF-Neo to IC50 of cancer cells) ([1]; addition of CuCl2 at 20 µM) | IC50 ([2]; HCT-116, 48 h, incubation 48 h, addition of CuCl2 at 20 µM) [µM] | SI HCT 116 (ratio of IC50 of NHDF-Neo to IC50 of cancer cells) ([2]; addition of CuCl2 at 20 µM) | SI HCT 116 (ratio of IC50 of NHDF-Neo to IC50 of cancer cells) ([2]; no copper added) | IC50 ([3]; addition of CuCl2 at 20 µM) [µM]
C=C(C)C1CCC2(COC(=O)Cn3cc(CO)nn3)CCC3(C)C(CCC4C5(C)CCC(OC(=O)Cn6cc(CO)nn6)C(C)(C)C5CCC43C)C12 (stereo not drawn) [3,28-O,O’-bis(2-(4-(hydroxymethyl-1H-1,2,3-triazol-1-yl)acetyl)betulin] | unexpectedly high in vitro activity | showed toxicity against healthy cells | – | – | – | – | – | – | – | – | – | – | –
C=C(C)[C@@H]1CC[C@]2(COC(=O)CCC(=O)OCc3cn([C@@H]4O[C@H](COCc5ccccc5)[C@H](OCc5ccccc5)[C@H](OCc5ccccc5)[C@H]4OCc4ccccc4)nn3)CC[C@]3(C)C(CCC4[C@@]5(C)CC[C@H](OC(C)=O)C(C)(C)C5CC[C@]43C)C12 (stereo partly drawn) [6b] | – | – | 184 ± 7.59 | >1.1 | > 200 | > 200 | > 200 | – | – | – | – | – | –
C=C(C)[C@@H]1CC[C@]2(CO)CC[C@]3(C)[C@H](CC[C@@H]4[C@@]5(C)CC[C@H](O)C(C)(C)[C@@H]5CC[C@]43C)[C@@H]12 [BN, 3-Lup-20(29)-ene-3β,28-diol] | – | – | 17.9 ± 1.06 | 1.9 | 34.9 ± 4.26 | 26 ± 5.4 | 34.9 ± 8.36 | 13.9 ± 2.35 | 2.4 | 20.8 ± 2.71 | 1.6 | 1.3 | 33.3 ± 5.97
